The values that follow come from US11427586B2, “1,2,4-oxadiazole derivatives as liver X receptor agonists” (NOVARTIS AG, priority 2019, dated 2022).

One experiment concerns SCD1. Briefly: Measurement of SCD1 expression in SZ95-SCD1-HiBit cells (HiBiT assay). Particulars: Homo sapiens, 48 h; for EC50: SCD1 protein production, luminescence, initial dilution 1:3 in DMSO, read-out: HiBit EC50. Format: cell-based. On the technique in general: HiBiT is a short tag that completes a luciferase, so light tracks the accessible tagged protein.
In another experiment the test system is SZ95 sebocytes. Briefly: Sentinel Lipid Assay (SLA), desaturation index in SZ95 sebocytes. The following applies: Homo sapiens, 72 h; for EC50: desaturation index, lowest dose used 4.6 nM, read-out: SLA EC50. Format: cell-based. The method in brief: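 SZ95 human sebocytes on fibronectin-coated plates, dosed 72 h at 37 °C with 1:3 dilutions from 10 μM; lipids extracted with deuterated triglyceride internal standards and quantified by LC-MS/MS (MRM) as 11 sentinel lipids. Desaturation index from elastic-net coefficients, normalized to DMSO; Amax relative to a reference LXR agonist.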

The test system of experiment [1] is naive Sprague Dawley rats. The experiment in a line: In vivo measurement of lowered meibum melting temperature. On the set-up: species or system rat. The following applies: for Change of Tm: meibum melting point versus vehicle, 1% suspension eye drops twice a day for fourteen days, rats; for meibum melting temperature (in words): rat eyes, concentration of 1%; for Mean ± SEM of Compound (meibum melting point): rat meibum, DSC peak temperature, 1% suspension as eye drops twice a day for fourteen days, in °C. As to the method:
In Vivo Measurement of Lowered Meibum Melting Temperature
For compounds 8 and 57, the lowering of rat meibum melting temperature was measured in naive Sprague Dawley rats. The test animals were administered either vehicle, or a suspension of 1% of compound 8 or 1% of compound 57, as eye drops twice a day for fourteen days. The rat meibum was collected after administration of the compounds and analyzed by differential scanning calorimetry to measure the melting point. The lowering of meibum melting point in rats administered compound 8 or compound 57 was compared to the vehicle.
Melting properties of meibum were obtained using differential scanning calorimetry thermograms, recorded on a TA Discovery Q5000 (ThermoAnalytical). Samples were sealed in standard 40 μl aluminum pans and subjected to a heat-cool-heat cycle with melting temperatures being recorded on the second heating ramp. The samples were first heated to 150° C. at 30K/min then cooled −30° C. at 30K/min. Next, the sample was heated to 75° C. with an underlying heating rate of 2K/min, a period of modulation of 60 seconds and a temperature amplitude of modulation of 1° C. Dry N2 gas, at a flow rate of 50 mL/min was used to purge the DSC equipment during the measurement. Onset of melting and peak temperatures were recorded with peak temperature quoted as the melting point.
Results from the assay are shown Table 3 and in FIG. 4. Results were analyzed using an unpaired t test with Welch's correction.

[2] abbreviates: normalized Amax based on the reference compound Amax of 100%, read-out: HiBit Normalized Amax.
The mark [3] stands for this setting: SZ95-SCD1-HiBit cells, compared to reference compound, read-out: HiBit Amax.
[4] abbreviates: normalized Amax based on the reference compound Amax of 100%, read-out: SLA Normalized Amax.
The mark [5] stands for this setting: SZ95 cells, compared to reference compound, read-out: SLA Amax.

Read-outs that look alike come from different tables or passages of the source.

With `CC(C)CS(=O)(=O)c1ccccc1Oc1ccc(-c2noc(CN3C(=O)N(CCN4CCOCC4)C4(CCN(C5CCC5)CC4)C3=O)n2)cc1C(F)(F)F` [Compound 8, 8-cyclobutyl-3-((3-(4-(2-(isobutylsulfonyl)phenoxy)-3-(trifluoromethyl)phenyl)-1,2,4-oxadiazol-5-yl)methyl)-1-(2-morpholinoethyl)-1,3,8-triazaspiro[4.5]decane-2,4-dione], the Emax in the experiment with SCD1 (setting [2]) turned out to be 120%; in the experiment with SCD1 (setting [3]), 114%; in the experiment on SZ95 sebocytes (setting [4]) it was 230%; with SZ95 sebocytes (setting [5]), 221%. The concentration for a half-maximal effect (EC50) (in general, the concentration needed to bring the measured effect to its halfway point) is 0.111 nM with SCD1 (SZ95-SCD1-HiBit cells) and ≤ 4.6 nM in the experiment with SZ95 sebocytes (SZ95 cells). For the same compound, in experiment [1], the “Change of Tm” value is on record as −1.977 ± 0.3731. Further, in experiment [1], the “meibum melting temperature (in words)” value is “decrease”. For the same compound, in experiment [1], the “Mean ± SEM of Compound (meibum melting point)” value is 28.29 ± 0.2920.
In the case of `CC(C)CS(=O)(=O)c1ccccc1Oc1ccc(-c2noc(CN3C(=O)N(CCN4CCOCC4)C(C)(C)C3=O)n2)cc1C(F)(F)F` [Compound 57, 3-((3-(4-(2-(isobutylsulfonyl)phenoxy)-3-(trifluoromethyl)phenyl)-1,2,4-oxadiazol-5-yl)methyl)-5,5-dimethyl-1-(2-morpholinoethyl)imidazolidine-2,4-dione], the Emax with SCD1 (setting [2]) is 88.4%; with SCD1 (setting [3]), 84.1%; with SZ95 sebocytes (setting [4]), 176%; with SZ95 sebocytes (setting [5]), 169%. The figures for the EC50 with SCD1 (SZ95-SCD1-HiBit cells) and with SZ95 sebocytes (SZ95 cells) were 0.217 nM and ≤ 4.6 nM, respectively. For the same compound, the “Change of Tm” value in experiment [1] is −2.181 ± 0.3731. Besides, the “meibum melting temperature (in words)” value in experiment [1] is given as “decrease”. In experiment [1], the “Mean ± SEM of Compound (meibum melting point)” value was 28.08 ± 0.2945.
With `COCCN(CCOC)CCS(=O)(=O)c1ccccc1Oc1ccc(-c2noc(CN3C(=O)N(CCN4CCOCC4)C(C)(C)C3=O)n2)cc1C(F)(F)F` [Compound 61, 3-((3-(4-(2-((2-(bis(2-methoxyethyl)amino)ethyl)sulfonyl)phenoxy)-3-(trifluoromethyl)phenyl)-1,2,4-oxadiazol-5-yl)methyl)-5,5-dimethyl-1-(2-morpholinoethyl)imidazolidine-2,4-dione], the Emax in the experiment on SCD1 (setting [2]) turned out to be 78.9%; in the experiment with SCD1 (setting [3]), 75%; in the experiment on SZ95 sebocytes (setting [4]) it was 178%; with SZ95 sebocytes (setting [5]), 171%. Moreover, the concentration giving a half-maximal response (EC50) in the experiment with SCD1 (SZ95-SCD1-HiBit cells) was 9.1 nM; with SZ95 sebocytes (SZ95 cells), ≤ 4.6 nM.
As to `CC(C)CS(=O)(=O)c1ccccc1Oc1ccc(-c2noc(CN3C(=O)N(CCN4CCOCC4)C(C)(C)C3=O)n2)cc1Cl` [Compound 49, 3-((3-(3-chloro-4-(2-(isobutylsulfonyl)phenoxy)phenyl)-1,2,4-oxadiazol-5-yl)methyl)-5,5-dimethyl-1-(2-morpholinoethyl)imidazolidine-2,4-dione], the Emax in the experiment with SCD1 (setting [2]) was found to be 74.6%; with SCD1 (setting [3]), 70.9%; with SZ95 sebocytes (setting [4]) it was 114%; with SZ95 sebocytes (setting [5]) it was 110%. Further, the concentration for a half-maximal effect (EC50) in the experiment on SCD1 (SZ95-SCD1-HiBit cells) is 11.9 nM; in the experiment on SZ95 sebocytes (SZ95 cells) it was 40.6 nM.
